± gives the standard deviation of the averaged measurements.
Experiments:
Assay in all cases: level (log10 ratio to DMSO vehicle control); higher = higher biomarker level / cell amount than vehicle control
Conditions in all cases: in DMSO
Azathioprine = compound: Cn1cnc([N+](=O)[O-])c1Sc1ncnc2[nH]cnc12 [Azathioprine]
Protocol: (§1)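 BioMAP Diversity Plus panel of 12 human primary cell co-culture systems (3C, 4H, LPS, SAg, BT, BF4T, BE3C, CASM3C, HDF3CGF, KF3CT, MyoF, Mphg). Compounds were added 1 h before stimulation and left for 24 h (MyoF 48 h; BT 72 h for soluble read-outs or 6 d for IgG). Biomarkers were read by ELISA, cytotoxicity by SRB, PBMC viability and proliferation by Alamar Blue. Each well value was divided by the mean of 8 DMSO control wells on the same plate and log10 transformed; duplicate blinded samples were tested at 4 concentrations.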

Perfluorooctanamide = compound: NC(=O)C(F)(F)C(F)(F)C(F)(F)C(F)(F)C(F)(F)C(F)(F)C(F)(F)F [Perfluorooctanamide]
Protocol: as §1

[1] = compound: O=C(O)C(F)(F)C(F)(F)C(F)(F)C(F)(F)C(F)(F)C(F)(F)C(F)(F)C(F)(F)Cl [9-Chloro-perfluorononanoic acid]
Protocol: as §1

[2] = compound: FC(F)(F)C(F)(F)C(F)(F)C(F)(F)C(F)(F)C(F)(F)C(F)(F)CCI [1-Iodo-1H,1H,2H,2H-perfluorononane]
Protocol: as §1

[3] = compound: O=C(O)C(F)(F)OC(F)(F)C(F)(F)OC(F)(F)C(F)(F)C(F)(F)C(F)(F)F [Perfluoro-3,6-dioxadecanoic acid]
Protocol: as §1

1-(Perfluorohexyl)octane = compound: CCCCCCCCC(F)(F)C(F)(F)C(F)(F)C(F)(F)C(F)(F)C(F)(F)F [1-(Perfluorohexyl)octane]
Protocol: as §1

[4] = compound: O=S(=O)(O)C(F)(F)C(F)(F)C(F)(F)C(F)(F)C(F)(F)C(F)(F)C(F)(F)C(F)(F)F [Perfluorooctanesulfonic acid]
Protocol: as §1

Row | Test System | level (log10) (Azathioprine; 1400 nM) | level (log10) (Azathioprine; 4200 nM) | level (log10) (Azathioprine; 13000 nM) | level (log10) (Azathioprine; 38000 nM) | level (log10) (Perfluorooctanamide; 6700 nM) | level (log10) (Perfluorooctanamide; 20000 nM) | level (log10) (Perfluorooctanamide; 60000 nM) | level (log10) ([1]; 6700 nM) | level (log10) ([1]; 20000 nM) | level (log10) ([2]; 6700 nM) | level (log10) ([2]; 20000 nM) | level (log10) ([3]; 6700 nM) | level (log10) ([3]; 20000 nM) | level (log10) ([3]; 60000 nM) | level (log10) (1-(Perfluorohexyl)octane; 6700 nM) | level (log10) (1-(Perfluorohexyl)octane; 20000 nM) | level (log10) ([4]; 6700 nM) | level (log10) ([4]; 20000 nM) | level (log10) ([4]; 60000 nM)
1 | lMphg:sIL-10 | 0.0005 ± 0.12 | -0.077 ± 0.047 | -0.117 ± 0.059 | -0.311 ± 0.081 | -0.029 ± 0.0028 | 0.013 ± 0.042 | 0.008 ± 0.058 | 0.0205 ± 0.0078 | -0.015 ± 0.0085 | -0.0685 ± 0.00071 | -0.072 ± 0.021 | -0.023 ± 0.024 | -0.042 ± 0.023 | -0.561 ± 0.13 | -0.0375 ± 0.056 | -0.036 ± 0.054 | -0.033 ± 0.076 | -0.0295 ± 0.012 | -0.727 ± 0.099
2 | 3C:CD62E/E-Selectin | -0.0005 ± 0.012 | -0.013 ± 0.03 | -0.033 ± 0.0099 | -0.0015 ± 0.0078 | -0.009 ± 0.013 | -0.0115 ± 0.0078 | 0.004 ± 0.025 | -0.005 ± 0.0057 | 0.001 ± 0.017 | -0.0135 ± 0.0035 | -0.028 ± 0.014 | 0.0155 ± 0.043 | -0.001 ± 0.037 | 0.004 ± 0.052 | -0.0065 ± 0.011 | -0.02 ± 0.0071 | 0.004 ± 0.0042 | 0.0175 ± 0.018 | 0.0695 ± 0.011
3 | HDF3CGF:Proliferation 72hr | -0.0455 ± 0.079 | -0.061 ± 0.035 | -0.057 ± 0.0057 | -0.162 ± 0.027 | 0.0335 ± 0.049 | 0.004 ± 0.023 | -0.0165 ± 0.022 | 0.101 ± 0.022 | -0.081 ± 0.054 | -0.689 ± 0.0092 | -0.815 ± 0.25 | 0.0245 ± 0.00071 | 0.116 ± 0.011 | -0.0545 ± 0.036 | 0.0085 ± 0.077 | 0.0325 ± 0.005 | 0.141 ± 0.05 | 0.15 ± 0.048 | -0.544 ± 0.18
4 | HDF3CGF:Collagen I | -0.0185 ± 0.005 | -0.059 ± 0.044 | -0.0475 ± 0.028 | -0.034 ± 0.064 | -0.0135 ± 0.043 | -0.0555 ± 0.013 | 0.0095 ± 0.081 | -0.0595 ± 0.005 | -0.151 ± 0.0042 | 0.0105 ± 0.042 | -0.011 ± 0.058 | -0.052 ± 0.011 | -0.0485 ± 0.0064 | -0.095 ± 0.13 | 0.006 ± 0.0085 | -0.01 ± 0.1 | 0.0175 ± 0.033 | 0.0045 ± 0.026 | 0.0065 ± 0.042
5 | BE3C:uPA | -0.0025 ± 0.016 | 0 ± 0.013 | -0.0115 ± 0.019 | -0.041 ± 0.016 | 0.0025 ± 0.0035 | 0.0005 ± 0.005 | 0.0135 ± 0.0021 | 0.0035 ± 0.011 | -0.0125 ± 0.011 | 0.003 ± 0.033 | -0.0125 ± 0.015 | 0.006 ± 0.025 | -0.0045 ± 0.025 | -0.003 ± 0.011 | -0.0145 ± 0.012 | -0.0145 ± 0.0092 | -0.003 ± 0.0099 | -0.031 | -0.122 ± 0.013
6 | 3C:CCL2/MCP-1 | 0.0095 ± 0.0064 | -0.006 | 0.009 ± 0.0014 | -0.0165 ± 0.015 | 0.0085 ± 0.028 | -0.01 ± 0.0014 | 0.0105 ± 0.054 | 0.015 ± 0.054 | -0.0065 ± 0.037 | -0.005 | 0.019 ± 0.011 | 0.002 ± 0.0099 | 0.013 ± 0.0057 | 0.0195 ± 0.023 | -0.008 ± 0.0014 | 0.0205 ± 0.023 | 0.0115 ± 0.0035 | -0.012 ± 0.0028 | -0.0065 ± 0.013
7 | KF3CT:CXCL9/MIG | -0.0015 ± 0.00071 | -0.008 ± 0.0014 | -0.005 ± 0.0099 | 0.0205 ± 0.015 | 0.0035 ± 0.039 | 0.0105 ± 0.016 | 0.018 ± 0.0042 | 0.0025 ± 0.0092 | -0.0015 ± 0.0021 | 0.0045 ± 0.00071 | -0.01 ± 0.025 | -0.0095 ± 0.0064 | -0.002 ± 0.0028 | -0.005 ± 0.0085 | 0.0085 ± 0.013 | 0.001 ± 0.0057 | -0.007 ± 0.0042 | 0.0025 ± 0.0035 | 0.0075 ± 0.012
8 | MyoF:Decorin | -0.007 ± 0.024 | -0.009 ± 0.023 | -0.0165 ± 0.015 | -0.013 ± 0.018 | -0.0145 ± 0.05 | 0.027 ± 0.078 | 0.0305 ± 0.04 | 0.012 ± 0.0014 | -0.0045 ± 0.05 | 0.014 ± 0.0042 | 0.038 ± 0.05 | 0.0005 ± 0.0021 | 0.023 ± 0.014 | -0.021 ± 0.027 | 0.005 ± 0.011 | 0.0265 ± 0.032 | 0.018 ± 0.0071 | 0.0365 ± 0.013 | 0.054 ± 0.018
9 | HDF3CGF:MMP-1 | 0.0005 ± 0.0021 | 0.02 ± 0.021 | 0.0275 ± 0.022 | 0.0415 ± 0.0021 | 0.0175 ± 0.00071 | 0.003 ± 0.0071 | -0.0025 ± 0.028 | -0.0875 ± 0.005 | -0.118 ± 0.011 | 0.011 ± 0.017 | 0.061 ± 0.04 | -0.023 ± 0.011 | -0.0485 ± 0.013 | -0.068 ± 0.011 | -0.0395 ± 0.012 | -0.014 ± 0.023 | -0.0145 ± 0.0064 | -0.016 ± 0.0014 | 0.0085 ± 0.015
10 | KF3CT:uPA | 0.011 ± 0.0028 | 0.015 ± 0.016 | -0.003 ± 0.0071 | -0.0025 ± 0.0078 | -0.012 ± 0.037 | 0.0035 ± 0.015 | -0.0155 ± 0.012 | 0.0095 ± 0.0078 | 0.01 | 0.0025 ± 0.018 | 0.006 ± 0.016 | -0.0095 ± 0.0064 | -0.0065 ± 0.03 | 0.0095 ± 0.005 | 0.01 ± 0.024 | -0.0055 ± 0.029 | -0.001 ± 0.0057 | -0.012 ± 0.018 | -0.021 ± 0.0057
11 | CASM3C:Serum Amyloid A | 0.033 ± 0.021 | -0.0125 ± 0.0021 | -0.031 ± 0.0085 | -0.0485 ± 0.066 | -0.034 ± 0.044 | -0.0465 ± 0.069 | -0.062 ± 0.051 | 0.001 ± 0.016 | 0.0285 ± 0.011 | -0.007 ± 0.031 | 0.0135 ± 0.076 | 0.012 ± 0.025 | -0.004 ± 0.023 | 0.0405 ± 0.0021 | -0.02 ± 0.0057 | 0.0055 ± 0.066 | 0.0035 ± 0.0021 | -0.017 ± 0.0014 | -0.005 ± 0.04
12 | 3C:CD141/Thrombomodulin | -0.0275 ± 0.026 | -0.0055 ± 0.036 | -0.041 ± 0.065 | -0.0855 ± 0.049 | -0.006 ± 0.02 | -0.0115 ± 0.022 | -0.0185 ± 0.039 | -0.017 ± 0.016 | -0.008 ± 0.02 | -0.028 ± 0.0014 | -0.01 ± 0.041 | -0.014 ± 0.048 | -0.0345 ± 0.039 | -0.016 ± 0.04 | 0.0125 ± 0.015 | -0.0105 ± 0.018 | -0.0015 ± 0.012 | -0.0025 ± 0.011 | 0.0455 ± 0.022
13 | BE3C:SRB | 0.013 ± 0.016 | -0.005 | -0.0095 ± 0.0078 | -0.0045 ± 0.0092 | -0.005 ± 0.0057 | -0.003 ± 0.0057 | 0.0005 ± 0.0035 | -0.0045 ± 0.0064 | -0.0805 ± 0.005 | -0.0035 ± 0.0021 | 0.0005 ± 0.00071 | -0.0015 ± 0.0064 | -0.0095 ± 0.013 | -0.0435 ± 0.022 | -0.0005 ± 0.0021 | 0.002 ± 0.0028 | -0.0095 ± 0.0064 | -0.2205 ± 0.00071 | -0.371 ± 0.016
14 | BE3C:MMP-9 | 0.0075 ± 0.046 | 0.0285 ± 0.04 | -0.0135 ± 0.03 | -0.0485 ± 0.028 | -0.0085 ± 0.0064 | 0.002 ± 0.0028 | 0.0015 ± 0.013 | 0.001 ± 0.014 | -0.04 ± 0.014 | -0.0045 ± 0.013 | -0.0045 ± 0.026 | -0.005 ± 0.0099 | 0.007 ± 0.031 | -0.0195 ± 0.0021 | -0.0065 ± 0.0021 | -0.005 ± 0.0057 | -0.0185 ± 0.018 | -0.117 ± 0.0035 | -0.215 ± 0.086
15 | HDF3CGF:CXCL11/I-TAC | -0.0495 ± 0.018 | -0.042 ± 0.055 | -0.078 ± 0.014 | -0.21 ± 0.04 | -0.006 ± 0.0099 | -0.0185 ± 0.016 | -0.016 ± 0.0057 | -0.105 ± 0.029 | -0.217 ± 0.069 | -0.0295 ± 0.005 | -0.094 ± 0.018 | -0.0355 ± 0.023 | -0.0895 ± 0.028 | -0.168 ± 0.024 | -0.0255 ± 0.023 | -0.0365 ± 0.057 | -0.0165 ± 0.016 | -0.0185 ± 0.00071 | -0.087 ± 0.017

— the supplement of paper PMC10331698
